The target in this test is TLR4 (toll-like receptor 4) (Homo sapiens, UniProt O00206). Kind of test: TLR4 ELISA on lysates of human PBMCs treated with AVR-25 for […] h, dose response. The test is classed as cell-based. For orientation: In an ELISA, binding on a coated surface is turned into a signal by an enzyme label.

As usually defined, the IC50 is the midpoint of a concentration-inhibition curve. Low readings indicate greater potency, high ones weaker potency.

Sequence of TLR4 (toll-like receptor 4) (O00206 24-839): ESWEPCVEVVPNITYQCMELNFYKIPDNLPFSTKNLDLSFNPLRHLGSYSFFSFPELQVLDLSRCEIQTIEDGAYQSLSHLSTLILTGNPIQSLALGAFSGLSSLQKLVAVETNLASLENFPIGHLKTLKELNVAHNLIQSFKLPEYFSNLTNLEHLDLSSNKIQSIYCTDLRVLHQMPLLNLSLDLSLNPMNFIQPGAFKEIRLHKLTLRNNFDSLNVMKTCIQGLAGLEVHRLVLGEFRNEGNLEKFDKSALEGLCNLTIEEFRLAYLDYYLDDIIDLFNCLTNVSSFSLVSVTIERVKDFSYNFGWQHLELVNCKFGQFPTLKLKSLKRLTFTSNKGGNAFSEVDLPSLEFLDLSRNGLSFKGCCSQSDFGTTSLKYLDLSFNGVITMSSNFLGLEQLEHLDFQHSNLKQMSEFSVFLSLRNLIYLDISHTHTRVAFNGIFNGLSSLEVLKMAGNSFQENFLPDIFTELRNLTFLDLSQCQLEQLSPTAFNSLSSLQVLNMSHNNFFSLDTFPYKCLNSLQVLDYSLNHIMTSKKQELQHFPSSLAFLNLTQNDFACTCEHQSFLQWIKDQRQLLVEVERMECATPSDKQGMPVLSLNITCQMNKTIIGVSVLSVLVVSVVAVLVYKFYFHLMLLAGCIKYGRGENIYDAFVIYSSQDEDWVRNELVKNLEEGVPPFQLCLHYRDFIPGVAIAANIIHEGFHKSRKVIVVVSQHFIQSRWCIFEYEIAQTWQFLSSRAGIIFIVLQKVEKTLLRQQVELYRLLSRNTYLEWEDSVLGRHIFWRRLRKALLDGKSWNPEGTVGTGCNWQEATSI

Consider `CC(=O)N[C@H]1[C@H](OC2CCCCC2)O[C@H](CO)[C@@H](O[C@@H]2O[C@H](CO)[C@@H](O)[C@H](O)[C@H]2NC(C)=O)[C@@H]1O` [AVR-25, N-((2R,3R,4R,5S,6R)-5-(((2S,3R,4R,5S,6R)-3-acetamido-4,5-dihydroxy-6-(hydroxymethyl)tetrahydro-2H-pyran-2-yl)oxy)-2-(cyclohexyloxy)-4-hydroxy-6-(hydroxymethyl)tetrahydro-2H-pyran-3-yl)acetamide], for which the IC50 was determined as 150 nM.

The values are drawn from article PMC6393422, “Novel Chitohexaose Analog Protects Young and Aged mice from CLP Induced Polymicrobial Sepsis” (Scientific Reports, 2019).
